Experimental findings from patent US4039666A, “Anticonvulsant phenylsilanes” (Dow Corning Corporation, priority 1976, dated 1977) are described below.

Data set [1] has as its system mice. The experiment in a line: Electroshock test (Maximal Electroshock Test, M.E.S.), inhibition of tonic extension of hind limbs. It is filed as in vivo, mice (adult male, Carworth CF 1 strain). The note with it: Mus musculus, Table I, oral, sesame oil, read-out: MES ED50. The protocol:
The electroshock test procedure was used to determine anticonvulsant activities of diphenylmethylsilanol. Adult male mice (Carworth CF 1 strain) were utilized as test animals. […] Seizure protection was scored as inhibition of tonic extension. Groups of mice (six/group) were dosed orally with varying amounts of diphenylmethylsilanol in a sesame oil suspension. The dosages ranged from 10 to 1000 mg./kg. and the train of electric shocks was applied 2, 4 and 6 hours after dosing. The effective dose to prevent convulsions in half the animals (ED50) was determined at 2, 4 and 6 hours to be 52, 63, 100 mg/kg, respectively, and the 95 percent CI (confidence interval) was 23 to 114 mg./kg.; 27 to 141 mg./kg.; 47 to 212 mg./kg.
The electric shock test procedure was also used to determine anticonvulsant activities of phenylmethyldimethoxysilane. Adult male mice (Carworth CF 1 strain) were utilized as test animals. […] Seizure protection was scored as in Example 1. Groups of mice ten/group) were dosed orally with varying amounts of phenylmethyldimethoxysilane in a sesame oil solution. The dosages ranged from 25 to 200 mg./kg. and the train of electric shocks was applied 1/2, 1, 11/2, 2 and 3 hours after dosing. The effective dose to prevent convulsions in half the animals (ED50) was determined at 1/2, 1, 11/2, 2 and 3 hours to be 52, 86, 64, 82 and 90 mg./kg., respectively. Utilizing the same electroshock test procedure as set forth in the first paragraph of this example, groups of mice (ten/group) were dosed intraperitoneally with varying amounts of phenylmethyldimethoxysilane in a sesame oil solution. The dosages ranged from 25 to 200 mg./kg. and the train of electric shocks was applied 1/2, 1, 11/2, 2 and 3 hours after dosing. The effective dose to prevent convulsions in half the animals (ED50) was determined at 1/2, 1, 11/2, 2 and 3 hours to be 45, 65, 52, 51 and 70 mg./kg., respectively.
The electric shock test used in Example 1 and 2 was used in determining the anticonvulsant activities of several other silanes.
(§1) ^1 The test silane was administered orally in sesame oil vehicle at
^2 M.E.S. - Maximal Electroshock Test - ED50 is dose calculated
to protect 50% of mice from tonic extensor convulsion. The dosages ranged
In general terms: In the maximal electroshock model the usual endpoint is tonic extension of the hind limbs.

Data set [2] has as its system mice. As to the kind of experiment: Potentiation of hexobarbital sleep time (relative sedative activity). It is filed as in vivo, mice (male, Carworth CF1 strain). The note with it: Table I; 316 mg/kg test compound oral, 90 minutes before hexobarbital 100 mg/kg i.p. Here is the method:
As a test of relative sedative activity of the various silanes, the ability of each to potentiate the action of hexobarbital was studied. For each silane, two groups of male mice (Carworth CF1 strain) were utilized as test animals. Two groups of mice (six/group) were used, one group was orally dosed with 316 mg./kg. of the test silane in sesame oil carrier 90 minutes before administration of hexobarbital. Hexobarbital was administered by intraperitoneal injection of 100 mg./kg. in saline carrier. The time from loss of the righting reflex to recovery of the righting reflex was recorded as sleep time. Potentiation of hexobarbital of the test silane is the ratio of the mean sleep time by the group of test animals dosed with the silane divided by the mean sleep time of the control group not dosed with silane.
^4 Potentiation of hexobarbital - values are the ratios of sleep time
of animals dosed with 316 mg/kg test compound plus 100 mg/kg hexobarbital
to the sleep times of animals dosed with hexobarbital alone.

A further data set is described as follows: Acute oral LD50. The format is in vivo, mice (male, 25 gm.). The note with it: mouse, in vivo; Table II; male mice, oral in sesame oil, highest dose 5000 mg/kg, observed 14 days, Finney's method; read-out: LD50 (95% Confidence Interval). The protocol:
(§2) ^1 Male mice, 25 gm. were used. Each compound was
(§3) given orally in sesame oil at doses ranging from
(§4) highest dose was 5000 mg/kg. The mice were
(§5) observed for 14 days and the number of deaths
(§6) was recorded. LD50 values were calculated by […]

Data set [3] has as its system mice. The experiment in a line: Protection vs. pentylenetetrazol clonic convulsions. The format is in vivo. The note with it: Table I; 316 mg/kg test compound, oral in sesame oil; pentylenetetrazol 80 mg/kg s.c.; n.p. = no protection observed. Here is the method: as §1
^3 Pentylenetetrazol 80 mg/kg s.c. produces clonic convulsions in 90%
of control mice. Values in table are the numbers of mice protected from
clonic convulsion/number tested when dosed with 316 mg/kg test compound.

Data set [4] relates to mice. The experiment in a line: Acute oral LD50. The format is in vivo, mice (male, 25 gm.). The note with it: Table II footnote 2; oral in sesame oil, up to 5000 mg/kg, 14 days. The protocol: as §2, §3, §4, §5, §6

SMILES strings stand for the structures. Read-outs that look alike come from different tables or passages of the source.

Regarding `CCO[Si](OCC)(OCC)c1ccccc1` [.phi.Si(OCH2 CH3)3], the median effective dose (ED50) with mice [1] (2 hours after dosing, n.p. = no protection observed) turned out to be 170 mg/kg; with mice [1] (4 hours after dosing) it was 31 mg/kg; with mice [1] (6 hours after dosing), 220 mg/kg. For the same molecule, the “Potentiation of Hexobarbital (ratio of sleep time with test compound to hexobarbital alone)” value in the data set on mice [2] amounted to 2.1. Also, the 50% lethal dose (LD50) at 336 h in “Acute oral LD50” amounted to 5140 mg/kg. In addition, the “Protection vs. Pentylenetetrazol (numbers of mice protected from clonic convulsion/number tested)” value in the data set on mice [3] is “n.p”.

Regarding `C[Si](O)(c1ccccc1)c1ccccc1` [drawing 15], the “deaths observed at any dose level used” value in the data set on mice [4] is given as “No deaths were observed”. Moreover, the LD50 at 336 h in “Acute oral LD50” was more than 5000 mg/kg.

For orientation: ED50 means the midpoint of the dose-response relation. Usually LD50 stands for the dose expected to kill half of the subjects tested.
